The term IC50 denotes the point on the concentration scale where inhibition reaches its midpoint.

The values that follow come from patent US9216999B2, “Substituted pyrrolo[2,3-h][1,6]naphthyridines and compositions thereof as JAK inhibitors” (priority 2011, dated 2015).

The target in assay [1] is JAK3 (Homo sapiens (Human), UniProt P52333). The assay can be described thus: JAK3 enzyme assay (Assay Example^b 1).
Assay [2] deals with JAK1 (Homo sapiens (Human), UniProt P23458). Kind of assay: JAK1 enzyme assay (Assay Example^b 1).
In assay [3] the target is JAK2 (Homo sapiens (Human), UniProt O60674). Kind of assay: JAK2 enzyme assay (Assay Example^b 1).
The target in assay [4] is Tyk2 (Homo sapiens (Human), UniProt P29597). The assay can be described thus: Tyk2 enzyme assay (Assay Example^b 1).
Tyk2, sequence (P29597 whole entry): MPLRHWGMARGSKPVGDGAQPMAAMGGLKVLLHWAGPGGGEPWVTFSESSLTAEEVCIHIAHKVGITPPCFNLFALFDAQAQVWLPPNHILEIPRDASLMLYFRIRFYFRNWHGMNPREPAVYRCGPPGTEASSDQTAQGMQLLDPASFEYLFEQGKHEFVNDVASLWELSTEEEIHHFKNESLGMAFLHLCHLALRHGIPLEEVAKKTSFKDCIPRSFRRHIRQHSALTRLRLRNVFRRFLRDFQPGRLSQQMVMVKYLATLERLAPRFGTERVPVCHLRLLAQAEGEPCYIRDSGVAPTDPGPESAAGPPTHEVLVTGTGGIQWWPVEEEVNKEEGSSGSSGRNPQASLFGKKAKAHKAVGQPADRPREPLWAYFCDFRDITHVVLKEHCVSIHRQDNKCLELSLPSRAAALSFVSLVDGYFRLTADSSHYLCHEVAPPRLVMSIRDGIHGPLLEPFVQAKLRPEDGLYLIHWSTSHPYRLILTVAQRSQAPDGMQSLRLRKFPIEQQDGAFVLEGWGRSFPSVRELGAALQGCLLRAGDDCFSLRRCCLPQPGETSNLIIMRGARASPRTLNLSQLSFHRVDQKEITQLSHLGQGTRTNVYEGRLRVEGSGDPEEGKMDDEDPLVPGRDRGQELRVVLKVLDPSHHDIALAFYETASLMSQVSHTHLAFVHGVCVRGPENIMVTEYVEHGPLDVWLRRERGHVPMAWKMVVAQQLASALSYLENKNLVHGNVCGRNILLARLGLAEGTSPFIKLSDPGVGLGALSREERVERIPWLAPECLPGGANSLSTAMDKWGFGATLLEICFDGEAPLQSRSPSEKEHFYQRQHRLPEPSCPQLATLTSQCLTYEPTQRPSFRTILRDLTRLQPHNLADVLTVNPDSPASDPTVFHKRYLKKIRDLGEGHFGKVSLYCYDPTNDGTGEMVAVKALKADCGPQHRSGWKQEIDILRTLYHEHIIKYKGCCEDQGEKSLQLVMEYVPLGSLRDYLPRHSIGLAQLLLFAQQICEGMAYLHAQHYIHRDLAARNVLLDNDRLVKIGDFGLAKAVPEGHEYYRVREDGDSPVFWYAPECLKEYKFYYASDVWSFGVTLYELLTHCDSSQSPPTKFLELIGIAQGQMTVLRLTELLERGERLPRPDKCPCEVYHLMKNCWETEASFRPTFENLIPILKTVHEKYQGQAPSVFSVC
The conditions of assay [5]: clinical tests; cited from earlier work.
The conditions of assay [6]: clinical tests; cited from earlier work. The source holds these as a separate data set.
The conditions of assay [7]: monkey model of kidney transplantation; cited from earlier work.
The conditions of assay [8]: murine asthma model; cited from earlier work.
[9] abbreviates: IC50 (μM) JAK3, Table^b 78, ATP 100 μM.
[10] abbreviates: IC50 (μM) JAK1, Table^b 78, ATP 100 μM.
Setting [11] is: IC50 (μM) JAK2, Table^b 79, ATP 100 μM.
Where [12] appears, read: IC50 (μM) TYK2, Table^b 79, ATP 100 μM.
[13] abbreviates: IC50 (μM) JAK3, Table^b 80, ATP 100 μM.
Setting [14] is: IC50 (μM) JAK1, Table^b 80, ATP 100 μM.
The mark [15] stands for this setting: IC50 (μM) JAK2, Table^b 80, ATP 100 μM.
Where [16] appears, read: IC50 (μM) TYK2, Table^b 80, ATP 100 μM.

JAK3, sequence (P52333 whole entry): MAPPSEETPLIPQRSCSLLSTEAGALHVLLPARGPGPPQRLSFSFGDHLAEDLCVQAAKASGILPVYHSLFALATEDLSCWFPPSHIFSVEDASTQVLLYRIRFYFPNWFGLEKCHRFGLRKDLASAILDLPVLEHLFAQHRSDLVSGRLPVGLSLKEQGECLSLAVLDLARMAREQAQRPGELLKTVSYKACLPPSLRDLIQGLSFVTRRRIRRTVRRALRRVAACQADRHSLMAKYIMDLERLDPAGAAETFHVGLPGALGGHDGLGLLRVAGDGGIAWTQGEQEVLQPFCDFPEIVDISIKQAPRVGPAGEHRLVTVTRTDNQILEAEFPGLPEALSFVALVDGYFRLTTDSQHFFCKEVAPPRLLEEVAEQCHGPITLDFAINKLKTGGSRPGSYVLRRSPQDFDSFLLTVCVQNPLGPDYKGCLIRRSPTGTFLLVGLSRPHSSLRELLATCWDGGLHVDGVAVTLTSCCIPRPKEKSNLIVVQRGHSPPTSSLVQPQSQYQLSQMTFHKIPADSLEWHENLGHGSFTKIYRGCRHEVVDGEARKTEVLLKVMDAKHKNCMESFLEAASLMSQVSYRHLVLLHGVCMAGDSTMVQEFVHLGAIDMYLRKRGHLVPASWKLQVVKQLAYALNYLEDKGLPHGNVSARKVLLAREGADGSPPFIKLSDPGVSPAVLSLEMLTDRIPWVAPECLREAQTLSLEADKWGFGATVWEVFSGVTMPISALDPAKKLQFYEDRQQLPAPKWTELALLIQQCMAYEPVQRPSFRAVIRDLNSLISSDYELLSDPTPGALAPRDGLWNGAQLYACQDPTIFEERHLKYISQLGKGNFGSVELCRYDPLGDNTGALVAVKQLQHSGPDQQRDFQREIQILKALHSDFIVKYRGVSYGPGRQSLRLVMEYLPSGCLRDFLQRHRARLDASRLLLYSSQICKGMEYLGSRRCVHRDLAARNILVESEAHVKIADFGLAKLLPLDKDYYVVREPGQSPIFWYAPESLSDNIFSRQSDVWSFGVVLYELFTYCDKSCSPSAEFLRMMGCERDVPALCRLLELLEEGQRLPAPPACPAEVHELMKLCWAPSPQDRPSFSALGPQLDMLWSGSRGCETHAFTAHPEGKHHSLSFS

On to `C[C@@H]1CCN(C(=O)CC#N)C[C@@H]1n1ccc(=O)c2cnc3[nH]ccc3c21` (racemic) [compound 7], for which the IC50 in assay [1] (setting [9]) was 0.0032 µM; in assay [2] (setting [10]), 0.0017 µM; in assay [3] (setting [11]) it was 0.004 µM; in assay [4] (setting [12]) it was 0.06 µM.
For the compound `C[C@@H]1CCN(C(=O)CC2CC2)C[C@@H]1n1ccc(=O)c2cnc3[nH]ccc3c21` (racemic) [compound 8], the IC50 was found to be 0.041 µM in assay [1] (setting [9]), 0.026 µM in assay [2] (setting [10]), 0.075 µM in assay [3] (setting [11]) and 1.5 µM in assay [4] (setting [12]).
With `C[C@@H]1CCN(C(=O)CC(F)(F)F)C[C@@H]1n1ccc(=O)c2cnc3[nH]ccc3c21` (racemic) [compound 9], the IC50 was determined as 0.01 µM in assay [1] (setting [9]), 0.004 µM in assay [2] (setting [10]), 0.0094 µM in assay [3] (setting [11]) and 0.15 µM in assay [4] (setting [12]).
As for `C[C@@H]1CCN(Cc2ccccc2)C[C@@H]1n1ccc(=O)c2cnc3[nH]cc(Br)c3c21` (racemic) [compound 21], the IC50 was 0.82 µM in assay [1] (setting [13]), 0.56 µM in assay [2] (setting [14]), 1.3 µM in assay [3] (setting [15]) and more than 1 µM in assay [4] (setting [16]).
For `C[C@@H]1CCN(Cc2cccc(C#N)c2)C[C@@H]1n1ccc(=O)c2cnc3[nH]ccc3c21` (racemic) [compound 42], the IC50 in assay [1] (setting [13]) is 0.093 µM; in assay [2] (setting [14]) it was 0.016 µM; in assay [3] (setting [15]) it was 0.15 µM; in assay [4] (setting [16]), more than 1 µM.
For the compound `C[C@@H]1CCN(C(=O)CC#N)C[C@@H]1N(C)c1ncnc2[nH]ccc12` [CP-690,550], the “pathology of rheumatoid arthritis” value in assay [5] is “improved the pathology”. In assay [6], the pathology of psoriasis entry is “improved the pathology”. Also, in assay [7], the rejection result is on record as “suppressed rejection”. Also, the airway inflammation result in assay [8] was “suppressed”.
For the compound `O=c1ccn(C2CCN(Cc3ccc(C(F)(F)F)cc3)CC2)c2c1cnc1[nH]ccc12` [Synthetic Example^b 56, 1-{1-[4-(trifluoromethyl)benzyl]piperidin-4-yl}-1H-pyrrolo[2,3-h][1,6]naphthyridin-4(7H)-one], the IC50 in assay [1] (setting [13]) is more than 1 µM; in assay [2] (setting [14]), 0.019 µM; in assay [3] (setting [15]), 0.24 µM; in assay [4] (setting [16]), more than 1 µM.
`N#CCn1c(=O)c2cnc3[nH]ccc3c2n(C2CCCCC2)c1=O` [Synthetic Example^b 137, 2-(1-Cyclohexyl-2,4-dioxo-1H-pyrrolo[3′,2′:5,6]pyrido[4,3-d]pyrimidin-3(2H,4H,7H)-yl)acetonitrile]: the IC50 in assay [1] (IC50 (μM) JAK3, ATP 100 μM) was 0.91 µM; in assay [2] (IC50 (μM) JAK1, ATP 100 μM), 0.057 µM; in assay [3] (IC50 (μM) JAK2, ATP 100 μM), more than 1 µM; in assay [4] (IC50 (μM) TYK2, ATP 100 μM) it was more than 1 µM.
Regarding `Cn1c(=O)c2cnc3[nH]ccc3c2n(C2CCCCC2)c1=O` [Synthetic Example^b 138, 1-cyclohexyl-3-methyl-1H-pyrrolo[3′,2′:5,6]pyrido[4,3-d]pyrimidine-2,4(3H,7H)-dione], the IC50 is 0.51 µM in assay [1] (IC50 (μM) JAK3, ATP 100 μM); 0.04 µM in assay [2] (IC50 (μM) JAK1, ATP 100 μM); 0.42 µM in assay [3] (IC50 (μM) JAK2, ATP 100 μM); more than 1 µM in assay [4] (IC50 (μM) TYK2, ATP 100 μM).
Consider `O=c1ncn(C2CCCCC2)c2c1cnc1[nH]ccc12` [compound 13], for which the IC50 is 1.3 µM in assay [1] (setting [9]), 0.042 µM in assay [2] (setting [10]), 0.56 µM in assay [3] (setting [11]) and more than 1 µM in assay [4] (setting [12]).
Turning to `O=C1NCc2cnc3[nH]ccc3c2N1C1CCN(S(=O)(=O)Cc2ccccc2)CC1` [compound 60], the IC50 was more than 1 µM in assay [1] (setting [13]), 0.35 µM in assay [2] (setting [14]), 0.48 µM in assay [3] (setting [15]) and more than 1 µM in assay [4] (setting [16]).
On to `O=C(Nc1nncs1)N1CCC(N2C(=O)NCc3cnc4[nH]ccc4c32)CC1` [compound 64], for which the IC50 in assay [2] (setting [14]) worked out at 0.012 µM; in assay [3] (setting [15]) it was 0.02 µM; in assay [4] (setting [16]) it was 0.17 µM.
For `O=C1NCc2cnc3[nH]ccc3c2N1C1CCN(Cc2cncs2)CC1` [compound 66] the same measures were 0.08 µM, 0.14 µM and 0.99 µM.
For the compound `O=C1NCc2cnc3[nH]ccc3c2N1C1CCNCC1` [compound 68], the 50% inhibitory concentration (IC50) in assay [1] (setting [13]) is 9.1 µM; in assay [2] (setting [14]), 0.5 µM; in assay [3] (setting [15]) it was 2.4 µM; in assay [4] (setting [16]), more than 1 µM.
Regarding `O=c1ccn(C2CCN(Cc3ccc(Br)o3)CC2)c2c1cnc1[nH]ccc12` [compound 80], the IC50 in assay [1] (setting [13]) was found to be 0.34 µM; in assay [3] (setting [15]), 0.02 µM; in assay [4] (setting [16]), 0.24 µM.
Turning to `O=C(c1ccc(Cl)s1)N1CCC(n2ccc(=O)c3cnc4[nH]ccc4c32)CC1` [compound 87], the IC50 in assay [1] (setting [13]) is more than 1 µM; in assay [2] (setting [14]), 0.025 µM; in assay [3] (setting [15]), 0.38 µM; in assay [4] (setting [16]) it was more than 1 µM.
On to `O=c1[nH]c(=O)n(C2CCN(Cc3ccc(Br)s3)CC2)c2c1cnc1[nH]ccc12` [compound 89], for which the IC50 was more than 1 µM in assay [1] (IC50 (μM) JAK3, ATP 100 μM); 0.011 µM in assay [2] (IC50 (μM) JAK1, ATP 100 μM); more than 1 µM in assay [3] (IC50 (μM) JAK2, ATP 100 μM); more than 1 µM in assay [4] (IC50 (μM) TYK2, ATP 100 μM).
As for `O=c1[nH]c(=O)n(C2C3CC4CC2CC(O)(C4)C3)c2c1cnc1[nH]ccc12` (stereo not shown) [compound 104], the IC50 in assay [1] (IC50 (μM) JAK3, ATP 100 μM) turned out to be 0.38 µM; in assay [3] (IC50 (μM) JAK2, ATP 100 μM) it was 0.046 µM; in assay [4] (IC50 (μM) TYK2, ATP 100 μM), 0.38 µM.
Take `O=c1[nH]c(=O)n(C2C3CC4CC2CC(O)(C4)C3)c2c1cnc1[nH]ccc12` (stereo not shown) [compound 105]: the IC50 was more than 1 µM in assay [1] (IC50 (μM) JAK3, ATP 100 μM); more than 1 µM in assay [3] (IC50 (μM) JAK2, ATP 100 μM); more than 1 µM in assay [4] (IC50 (μM) TYK2, ATP 100 μM).
As to `O=c1ccn(C2C3CC4CC2CC(O)(C4)C3)c2c1cnc1[nH]ccc12` (stereo not shown) [compound 106], the IC50 is 0.61 µM in assay [1] (IC50 (μM) JAK3, ATP 100 μM); 0.047 µM in assay [2] (IC50 (μM) JAK1, ATP 100 μM); 0.25 µM in assay [3] (IC50 (μM) JAK2, ATP 100 μM); 0.38 µM in assay [4] (IC50 (μM) TYK2, ATP 100 μM).
For `O=c1ccn(C2C3CC4CC2CC(O)(C4)C3)c2c1cnc1[nH]ccc12` (stereo not shown) [compound 107], in that order: 0.41 µM, 0.31 µM, 0.6 µM and more than 1 µM.
For `O=c1[nH]c(=O)n(C2CCN(CCN3CCOCC3)CC2)c2c1cnc1[nH]ccc12` [compound 108], in that order: more than 1 µM, 0.37 µM, more than 1 µM and more than 1 µM.
For the compound `CC(C)(C)OC(=O)N1CCC(NCCN2CCC(n3c(=O)[nH]c(=O)c4cnc5[nH]ccc5c43)CC2)CC1` [compound 109], the IC50 in assay [1] (IC50 (μM) JAK3, ATP 100 μM) was more than 1 µM; in assay [2] (IC50 (μM) JAK1, ATP 100 μM), 0.92 µM; in assay [3] (IC50 (μM) JAK2, ATP 100 μM) it was more than 1 µM; in assay [4] (IC50 (μM) TYK2, ATP 100 μM) it was more than 1 µM.
For `O=c1[nH]c(=O)n(C2CCN(CCNC3CCNCC3)CC2)c2c1cnc1[nH]ccc12` [compound 111], the IC50 was more than 1 µM in assay [1] (IC50 (μM) JAK3, ATP 100 μM); 0.44 µM in assay [2] (IC50 (μM) JAK1, ATP 100 μM); more than 1 µM in assay [3] (IC50 (μM) JAK2, ATP 100 μM); more than 1 µM in assay [4] (IC50 (μM) TYK2, ATP 100 μM).
